Biological target: T1, PPM1A (protein phosphatase magnesium-dependent 1A; PP2Cα) (Homo sapiens, UniProt P35813)
T1 sequence (P35813 2-382): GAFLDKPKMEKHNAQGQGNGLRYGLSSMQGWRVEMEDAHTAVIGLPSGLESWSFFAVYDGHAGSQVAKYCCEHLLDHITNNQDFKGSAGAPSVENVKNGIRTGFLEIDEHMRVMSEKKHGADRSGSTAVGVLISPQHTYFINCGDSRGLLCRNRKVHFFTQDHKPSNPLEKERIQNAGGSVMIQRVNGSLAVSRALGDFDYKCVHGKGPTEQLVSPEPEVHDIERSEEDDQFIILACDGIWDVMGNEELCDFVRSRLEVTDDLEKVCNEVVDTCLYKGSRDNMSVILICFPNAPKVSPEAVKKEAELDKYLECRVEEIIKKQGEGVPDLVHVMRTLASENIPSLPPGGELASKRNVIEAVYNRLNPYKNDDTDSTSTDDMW
Experiment: microscale thermophoresis
Type: binding

Kd: 2700 nM
Structure (SMILES): CCCCCCCCCCCCCCCCOP(=O)([O-])OCC[N+](C)(C)C [MF, Miltefosine]
